Measurements reported in patent US20210369768A1, “METAL DI-AMINO ACID CHELATES OR METAL TRI-AMINO ACID CHELATES” (Balchem Corporation, priority 2020, published 2021).
Peptide text beside a SMILES is read from it.

Assays:
[1] = tested on: Caco-2 cells
Method: (§1) Magnesium uptake colorimetric assay kits were purchased from BioVision (Catalog #385-100). […] HEK-293 (ATCC® CRL-1573TM) cells, Caco-2 (ATCC® HTB-37TM) cells, and Dulbecco's Modified Eagle Medium (ATCC® 30-2002) were purchased from ATCC. Penicillin streptomycin (10,000 U/mL), fetal bovine serum (FBS), and trypsin/EDTA (0.25%) were purchased from Gibco™.
(§2) Caco-2 cells were cultured from Liquid N2 frozen stocks and rapidly thawed to RT using a water bath at 37° C.; cryopreservation media was removed with a micropipette after cells were pelleted via centrifugation for 8-10 minutes at 125 g. Cells were resuspended in 1 mL of room temperature DMEM and cultured in 14 mLs DMEM (total volume of 15 mLs) with a seeding density of 3.6×10^4 cells/cm^2 in a T-75 cm^2 culture flask and left to grow in an incubator at 37° C. and 5% CO2. Cells were sub-cultured at 90% confluency, and sub-culturing occurred a minimum of five times before use in uptake assays. When ready-to-use cultures were at 90% confluency, old DMEM media was pipetted off and 3-4 mLs of trypsin was added—the trypsinized culture flask was placed back in the incubator for 5-10 minutes to detach cells. Once detached, the culture flask was rinsed with 6-8 mLs of fresh DMEM to neutralize the trypsin -cells for uptake assays were counted utilizing a DeNovix CellDrop™. Once counted, cells were pelleted down via centrifugation at 125 g for 8-10 minutes, and the neutralized trypsin-media supernatant was pipetted off. Cells were resuspended in 5 mLs magnesium assay buffer for cellular uptake assay.
(§3) Cellular uptake data was collected at incubation times of 1 hr (required kit incubation time), 4 hrs (the amount of time required for uptake in the GI), and 24 hrs (the amount of time required for a complex to clear the GI).
(§4) Kinetics were evaluated utilizing the slope of the line of uptake of the complex in the Caco-2 cells.

[2] = Stability of the complex in solution via 1H NMR; type: physicochemical; conditions: 1H NMR in D2O
From the text: At 72 hrs, an observable upfield shift occurs, which may be due to isomer formation. There is no observable change in proton integration. NMR taken in D2O.

[3] = tested on: Caco-2 cells; test: Cellular uptake of magnesium complexes in Caco-2 cells (BioVision colorimetric magnesium uptake assay kit); conditions: Example 12, FIG. 72
Method: as §1, §2, §3, §4

Compound	cellular uptake at 24 hrs [1]	stability in solution [2]	cellular uptake in CaCo-2 cell line relative to other magnesium complexes [3]
NCC(=O)NCC(=O)NCC(=O)[O-].[Mg+2].[OH-] [Mg(G3), magnesium 2-[[2-[(2-aminoacetyl)amino]acetyl]amino]acetic acid chelate] (H-Gly-Gly-Gly-OH)	cell saturation	considerable stability for periods up to 72 hrs	
magnesium diglycine [MgG2]			relatively linear uptake in the CaCo-2 cell line similar to that of both magnesium chloride (MgCl2) and magnesium bisglycinate (MgBG)
NCC(=O)[O-].NCC(=O)[O-].[Mg+2] [MgBG, magnesium bisglycinate, reference compound]			significantly less cellular uptake than Mg(G3)
